# Laboratory results as given in PubChem BioAssay AID1845195 (Molecular Pharmacology Branch, DTP, NCI, 2023).
# Test system: 156681-154-R-J1 tumor spheroid viability
# Assay: Anticancer human tumor 156681-154-R-J1 patient-derived melanoma cell line growth inhibition
# Conditions: spheroids with HUVEC and MSC; for IC50: curve of first compound; for viability, T/C: stronger effect = lower value
# Summary of the method: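 Complex tumor spheroids combined malignant cells with endothelial cells and mesenchymal stem cells. DNA-damaging drugs and DNA repair inhibitors were tested alone and in combination, at half-log dilutions down from clinical Cmax (top 10 microM if Cmax unknown), 0.25% DMSO final.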
# [1] = second compound 0.003 µM, first compound 0.0316 µM
# [2] = second compound 0.003 µM, first compound 0.1 µM
# [3] = second compound 0.003 µM, first compound 0.316 µM
# [4] = second compound 0.003 µM, first compound 1 µM
# [5] = second compound 0.003 µM, first compound 3.16 µM
# [6] = second compound 0.003 µM, first compound 10 µM
# 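Note: spheroids exposed to compounds for 7 days before readout.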
# 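Throughout, for viability, T/C: percent of vehicle control viability where 100% = DMSO-treated spheroids.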
structure (smiles),measurement,setting,value
COc1ccc([C@@H](O)c2cc(-c3ncnc4cc(N5CCOCC5)ccc34)c(F)cc2Cl)nn1 + CC[C@@]1(O)C(=O)OCc2c1cc1n(c2=O)Cc2cc3c(CN(C)C)c(O)ccc3nc2-1,IC50,second compound 0.003 µM,5.78 µM
same,IC50,second compound 0.00949 µM,3.58 µM
same,IC50,second compound 0.03 µM,0.616 µM
same,IC50,second compound 0.0949 µM,< 0.0316 µM
same,IC50,second compound 0.3 µM,< 0.0316 µM
same,"viability, T/C",[1],80.6%
same,"viability, T/C",[2],70.4%
same,"viability, T/C",[3],78.3%
same,"viability, T/C",[4],63.9%
same,"viability, T/C",[5],54.4%
same,"viability, T/C",[6],46.6%
same,"viability, T/C","second compound 0.00949 µM, first compound 0.0316 µM",89.9%
same,"viability, T/C","second compound 0.00949 µM, first compound 0.1 µM",75.9%
same,"viability, T/C","second compound 0.00949 µM, first compound 0.316 µM",75%
same,"viability, T/C","second compound 0.00949 µM, first compound 1 µM",62.4%
same,"viability, T/C","second compound 0.00949 µM, first compound 3.16 µM",47.6%
same,"viability, T/C","second compound 0.00949 µM, first compound 10 µM",43.3%
same,"viability, T/C","second compound 0.03 µM, first compound 0.0316 µM",71.5%
same,"viability, T/C","second compound 0.03 µM, first compound 0.1 µM",57.8%
same,"viability, T/C","second compound 0.03 µM, first compound 0.316 µM",53.9%
same,"viability, T/C","second compound 0.03 µM, first compound 1 µM",49.5%
same,"viability, T/C","second compound 0.03 µM, first compound 3.16 µM",41.8%
same,"viability, T/C","second compound 0.03 µM, first compound 10 µM",35.3%
same,"viability, T/C","second compound 0.0949 µM, first compound 0.0316 µM",24.1%
same,"viability, T/C","second compound 0.0949 µM, first compound 0.1 µM",30.7%
same,"viability, T/C","second compound 0.0949 µM, first compound 0.316 µM",30.3%
same,"viability, T/C","second compound 0.0949 µM, first compound 1 µM",34%
same,"viability, T/C","second compound 0.0949 µM, first compound 3.16 µM",36.3%
same,"viability, T/C","second compound 0.0949 µM, first compound 10 µM",28.4%
same,"viability, T/C","second compound 0.3 µM, first compound 0.0316 µM",32.9%
same,"viability, T/C","second compound 0.3 µM, first compound 0.1 µM",36.8%
same,"viability, T/C","second compound 0.3 µM, first compound 0.316 µM",35.6%
same,"viability, T/C","second compound 0.3 µM, first compound 1 µM",42.1%
same,"viability, T/C","second compound 0.3 µM, first compound 3.16 µM",25.9%
same,"viability, T/C","second compound 0.3 µM, first compound 10 µM",8.42%
CC(C)n1c(=O)n(C)c2cnc3cc(F)c(-c4ccc(OCCCN5CCCCC5)nc4)cc3c21 + COc1cc2c(cc1O)CCNC21CSC2c3c(OC(C)=O)c(C)c4c(c3C(COC1=O)N1C(O)C3Cc5cc(C)c(OC)c(O)c5C(C21)N3C)OCO4,IC50,second compound 30 pM,> 10 µM
same,IC50,second compound 94.9 pM,> 10 µM
same,IC50,second compound 0.0003 µM,4.75 µM
same,IC50,second compound 0.000949 µM,< 0.0316 µM
same,IC50,second compound 0.003 µM,< 0.0316 µM
same,"viability, T/C","second compound 30 pM, first compound 0.0316 µM",101%
same,"viability, T/C","second compound 30 pM, first compound 0.1 µM",120%
same,"viability, T/C","second compound 30 pM, first compound 0.316 µM",87.2%
same,"viability, T/C","second compound 30 pM, first compound 1 µM",105%
same,"viability, T/C","second compound 30 pM, first compound 3.16 µM",104%
same,"viability, T/C","second compound 30 pM, first compound 10 µM",90.3%
same,"viability, T/C","second compound 94.9 pM, first compound 0.0316 µM",106%
same,"viability, T/C","second compound 94.9 pM, first compound 0.1 µM",91.1%
same,"viability, T/C","second compound 94.9 pM, first compound 0.316 µM",103%
same,"viability, T/C","second compound 94.9 pM, first compound 1 µM",95%
same,"viability, T/C","second compound 94.9 pM, first compound 3.16 µM",108%
same,"viability, T/C","second compound 94.9 pM, first compound 10 µM",73.5%
same,"viability, T/C","second compound 0.0003 µM, first compound 0.0316 µM",66.9%
same,"viability, T/C","second compound 0.0003 µM, first compound 0.1 µM",63.5%
same,"viability, T/C","second compound 0.0003 µM, first compound 0.316 µM",61.7%
same,"viability, T/C","second compound 0.0003 µM, first compound 1 µM",65.7%
same,"viability, T/C","second compound 0.0003 µM, first compound 3.16 µM",85.7%
same,"viability, T/C","second compound 0.0003 µM, first compound 10 µM",15.9%
same,"viability, T/C","second compound 0.000949 µM, first compound 0.0316 µM",6.13%
same,"viability, T/C","second compound 0.000949 µM, first compound 0.1 µM",2.85%
same,"viability, T/C","second compound 0.000949 µM, first compound 0.316 µM",4.29%
same,"viability, T/C","second compound 0.000949 µM, first compound 1 µM",3.82%
same,"viability, T/C","second compound 0.000949 µM, first compound 3.16 µM",4.41%
same,"viability, T/C","second compound 0.000949 µM, first compound 10 µM",0.77%
same,"viability, T/C",[1],0.23%
same,"viability, T/C",[2],0.23%
same,"viability, T/C",[3],0.24%
same,"viability, T/C",[4],0.22%
same,"viability, T/C",[5],0.18%
same,"viability, T/C",[6],0.24%
